Data reported in patent publication US20100069249A1, “HERBICIDE COMBINATION COMPRISING DIMETHOXYTRIAZINYL-SUBSTITUTED DIFLUOROMETHANESULFONYLANILIDES” (BAYER CROPSCIENCE AG, priority 2008, published 2010).

Key:
Assay in all cases: Post-emergence action against weeds, greenhouse pot test
Assay type in all cases: in vivo
Oryza sativa (ORYSA) = system: Oryza sativa (ORYSA)
Protocol: (§1) Seeds or rhizome pieces of mono- and dicotyledonous harmful and useful plants were placed in peat pots (diameter 4 cm) filled with sandy loam and then covered with soil. The pots were kept in a greenhouse under optimum conditions. In addition, harmful plants encountered in paddy rice cultivation were cultivated in pots with a water level 2 cm above the soil surface.
(§2) About three weeks after the start of the cultivation, the test plants were treated at the 2- to 3-leaf stage. The herbicides, formulated as powder or liquid concentrates, were, either alone or in the combinations according to the invention, sprayed in various dosages on to the green parts of the plants using an application rate of 600 l of water/ha (converted). For further cultivation of the plants, the pots were then again kept under optimum conditions in a greenhouse.
(§3) The visual scoring of the herbicidal effects was carried out in intervals up to 21 days after the treatment. Scoring was carried out in percent in comparison to the untreated control plants. 0%=no herbicidal activity, 100%=complete herbicidal activity=complete kill.
(§4) The percentages from the treatments with the herbicides alone (=individual application) and with the combinations according to the invention (=mixtures) were employed to calculate interactions using the method of Colby. When the observed efficacies of the mixtures exceed the formal sum of the values of the tests with individual applications, they also exceed the expected value according to Colby, which is calculated using the formula below (cf. S. R. Colby; in Weeds 15 (1967) pp. 20 to 22):
(§5) • A, B=activity of components A and B in percent at a dosage of a and b g of ai/ha (=gram of active substance per hectare), respectively. • E=expected value in % at a dosage of a+b g of ai/ha.

[1] = system: Triticum aestivum (TRZAS)
Protocol: as §1, §2, §3, §4, §5

Zea mays (ZEAMX) = system: Zea mays (ZEAMX)
Protocol: as §1, §2, §3, §4, §5

[2] = system: Fallopia (ex Polygonum) convolvulus (POLCO); details: 21 DAT; B 50 g of ai/ha
Protocol: as §1
as §2, with “greenhouse. […]” for “greenhouse.”
as §4, with “22): […]” for “22):”

[3] = system: Alopecurus myosuroides (ALOMY); details: 21 DAT
Protocol: as §1, §2, §3, §4, §5

[4] = system: Matricaria inodora (MATIN); details: 21 DAT; B 50 g of ai/ha
Protocol: as §1, §2, §3, §4, §5

Setaria viridis (SETVI) = details: 21 DAT; B 50 g of ai/ha
Protocol: as §1, §2, §3, §4, §5

Viola tricolor (VIOTR) = details: 21 DAT; B 50 g of ai/ha
Protocol: as §1, §2, §3, §4, §5

SMILES | % activity found (Oryza sativa (ORYSA); 10/21 DAT, A 4 g of ai/ha) [%] | % activity found ([1]; 21 DAT, A 12 g of ai/ha) [%] | % activity found (Zea mays (ZEAMX); 21 DAT, A 4 g of ai/ha) [%] | % activity found [2] [%] | % activity found ([3]; B 50 g of ai/ha) [%] | % activity found ([3]; B 150 g of ai/ha) [%] | % activity found [4] [%] | % activity found (Oryza sativa (ORYSA); 10/21 DAT, B 50 g of ai/ha) [%] | % activity found (Oryza sativa (ORYSA); 10/21 DAT, B 150 g of ai/ha) [%] | % activity found (Oryza sativa (ORYSA); 21 DAT, B 150 g of ai/ha) [%] | % activity found (Setaria viridis (SETVI)) [%] | % activity found ([1]; 10 DAT, B 50 g of ai/ha) [%] | % activity found ([1]; 10 DAT, B 150 g of ai/ha) [%] | % activity found ([1]; 21 DAT, B 50 g of ai/ha) [%] | % activity found (Viola tricolor (VIOTR)) [%] | % activity found (Zea mays (ZEAMX); 10 DAT, B 50 g of ai/ha) [%] | % activity found (Zea mays (ZEAMX); 10 DAT, B 150 g of ai/ha) [%] | % activity found (Zea mays (ZEAMX); 21 DAT, B 50 g of ai/ha) [%] | % activity found (Zea mays (ZEAMX); 21 DAT, B 150 g of ai/ha) [%]
COc1nc(OC)nc(C(=O)c2cccc(F)c2N(C)S(=O)(=O)C(F)F)n1 [A-1] | 0 | 0 | 0 | – | – | – | – | – | – | – | – | – | – | – | – | – | – | – | –
CP(=O)(O)CC[C@H](N)C(=O)O [B1-8, (2S)-2-amino-4-[hydroxy(methyl)phosphinyl]butanoic acid] | – | – | – | 40 | 0 | 20 | 60 | 10 | 30 | 30 | 80 | 20 | 30 | 20 | 40 | 30 | 40 | 0 | 0
